Reference: EP2036888A1, “Naphthyl-substituted sulfonamides” (Laboratorios del Dr. Esteve S.A., priority 2007, dated 2009)

Target: 5HT6 human recombinant receptor (Homo sapiens, UniProt P50406)
Assay: Binding with serotonin receptor 5HT6 ([3H]-LSD radioligand displacement, HEK-293 cell membranes)
Conditions: for inhibition at 0.01 µM: read-out: Binding % Inhibition 10 nM; for inhibition at 0.1 µM: read-out: Binding % Inhibition 100 nM

5HT6 human recombinant receptor, sequence (P50406 whole entry): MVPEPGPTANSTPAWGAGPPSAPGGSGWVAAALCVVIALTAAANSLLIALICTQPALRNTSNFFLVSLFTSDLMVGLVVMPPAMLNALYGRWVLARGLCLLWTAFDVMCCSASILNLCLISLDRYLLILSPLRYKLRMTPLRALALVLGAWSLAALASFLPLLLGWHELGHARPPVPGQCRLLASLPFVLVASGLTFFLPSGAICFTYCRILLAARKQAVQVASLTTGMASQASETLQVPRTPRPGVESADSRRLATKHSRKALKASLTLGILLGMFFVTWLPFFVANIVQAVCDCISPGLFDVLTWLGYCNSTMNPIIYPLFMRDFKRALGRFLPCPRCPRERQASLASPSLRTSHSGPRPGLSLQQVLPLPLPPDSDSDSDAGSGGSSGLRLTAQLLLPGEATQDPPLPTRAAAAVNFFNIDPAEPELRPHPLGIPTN

Row | Compound | Ki | inhibition at 0.01 µM | inhibition at 0.1 µM
1 | CN(C)CCc1c[nH]c2ccc(NS(=O)(=O)c3ccc4cc(N(C)C)ccc4c3)cc12 [Example 5, 6-(dimethylamino)-N-(3-(2-(dimethylamino)ethyl)-1H-indol-5-yl)naphthalene-2-sulfonamide] | 11.9 ± 3.3 nM | 69.8% | 88.5%
2 | COc1cccc2c(S(=O)(=O)Nc3ccc4[nH]cc(CCN(C)C)c4c3)cccc12 [Example 14, N-(3-(2-(dimethylamino)ethyl)-1H-indol-5-yl)-5-methoxynanhthalene-1-sulfonamide] | 18.6 nM | 59.6% | 88.1%
3 | COc1cccc2cccc(S(=O)(=O)Nc3ccc4[nH]cc(CCN(C)C)c4c3)c12 [Example 18, N-(3-(2-(dimethylamino)ethyl)-1H-indol-5-yl)-8-methoxynaphthalene-1-sulfonamide] | 8.3 nM | 69.2% | 88.4%
4 | CN(C)CCc1c[nH]c2ccc(NS(=O)(=O)c3ccc4ccc(Cl)cc4c3)cc12 [Example 4, 7-chloro-N-(3-(2-(dimethylamino)ethyl)-1H-indol-5-yl)naphthalene-2-sulfonamide] | 3.9 ± 0.4 nM | 81.2% | 89.3%
5 | CN(C)CCc1cn(C)c2ccc(NS(=O)(=O)c3ccc4c(Cl)cccc4c3)cc12 [Example 8, 5-chloro-N-(3-(2-(dimethylamino)ethyl)-1-methyl-1H-indol-5-yl)naphthalene-2-sulfonamide] | 13.4 ± 0.9 nM | 64.5% | 93.4%
6 | Cc1ccc(S(=O)(=O)Nc2ccc3[nH]cc(CCN(C)C)c3c2)c2ccccc12 [Example 3, N-(3-(2-(dimethylamino)ethyl)-1H-indol-5-yl)-4-methylnanhthalene-1-sulfonamide] | 9.8 nM | 80.3% | 88.5%
7 | CN(C)CCc1c[nH]c2ccc(NS(=O)(=O)c3ccc4ccc(O)cc4c3)cc12 [Example 17, N-(3-(2-(dimethylamino)ethyl)-1 H-indol-5-yl)-7-hydroxynaphthalene-2-sulfonamide] | 6.9 ± 0.2 nM | 69.9% | 91.5%
8 | CN(C)CCc1c[nH]c2ccc(N(C)S(=O)(=O)c3cccc4ccccc34)cc12 [Example 10, N-(3-(2-(dimethylamino)ethyl)-1H-indol-5-yl)-N-methylnaphthalene-1-sulfonamide] | 9.7 ± 4.5 nM | 79.2% | 92.7%
9 | CN(C)CCc1c[nH]c2ccc(NS(=O)(=O)c3ccc4cc(Cl)ccc4c3)cc12 [Example 1, 6-chloro-N-(3-(2-(dimethylamino)ethyl)-1H-indol-5-yl)naphthalene-2-sulfonamide] | – | 73.9% | 84.4%
10 | CN(C)CCc1c[nH]c2ccc(NS(=O)(=O)c3cccc4c(O)cccc34)cc12 [Example 15, N-(3-(2-(dimethylamino)ethyl)-1H-indol-5-yl)-5-hydroxynaphthalene-1-sulfonamide] | 0.5 nM | 91.9% | 94.6%
11 | CN(C)CCc1c[nH]c2ccc(N(C)S(=O)(=O)c3cccc4c(Cl)cccc34)cc12 [Example 12, 5-chloro-N-(3-(2-(dimethylamino)ethyl)-1H-indol-5-yl)-N-methylnaphthalene-1-sulfonamide] | 48.7 ± 6.9 nM | 51.6% | 85.4%
12 | CN(C)CCc1c[nH]c2ccc(N(C)S(=O)(=O)c3ccc4ccccc4c3)cc12 [Example 11, N-(3-(2-(dimethylamino)ethyl)-1H-indol-5-yl)-N-methylnaphthalene-2-sulfonamide] | 12.3 ± 3.7 nM | 73.1% | 93.1%
13 | CN(C)CCc1c[nH]c2ccc(N(C)S(=O)(=O)c3ccc4c(Cl)cccc4c3)cc12 [Example 13, 5-chloro-N-(3-(2-(dimethylamino)ethyl)-1H-indol-5-yl)-N-methylnaphthalene-2-sulfonamide] | 18.1 ± 2.6 nM | 55.5% | 87.6%
14 | Cn1cc(CCN2CCCC2)c2cc(NS(=O)(=O)c3cccc4ccccc34)ccc21 [Example 9, N-(1-methyl-3-(2-(pyrrolidin-1-yl)ethyl)-1H-indol-5-yl)naphthalene-1-sulfonamide] | 42.5 ± 13.9 nM | 58.1% | 86.8%
15 | CN(C)CCc1c[nH]c2ccc(NS(=O)(=O)c3cccc4cccc(O)c34)cc12 [Example 19, N-(3-(2-(dimethylamino)ethyl)-1H-indol-5-yl)-8-hydroxynaphthalene-1-sulfonamide] | 24.6 ± 2.1 nM | 53.8% | 85.9%
16 | COc1ccc(S(=O)(=O)Nc2ccc3[nH]cc(CCN(C)C)c3c2)c2ccccc12 [Example 20, N-(3-(2-(dimethylamino)ethyl)-1H-indol-5-yl)-4-methoxynaphthalene-1-sulfonamide] | 8.5 ± 1.7 nM | 53.3% | 81.8%
17 | COc1ccc2ccc(S(=O)(=O)Nc3ccc4[nH]cc(CCN(C)C)c4c3)cc2c1 [Example 16, N-(3-(2-(dimethylamino)ethyl)-1H-indol-5-yl)-7-methoxynaphthalene-2-sulfonamide] | 5 ± 1.3 nM | 70% | 89.3%
18 | CN(C)CCc1c[nH]c2ccc(NS(=O)(=O)c3cccc4c(N(C)C)cccc34)cc12 [Example 2] | 5.3 nM | 75.1% | 86.3%
19 | CN(C)CCc1c[nH]c2ccc(NS(=O)(=O)c3cccc4cccc(Cl)c34)cc12 [Example 6, 8-chloro-N-(3-(2-(dimethylamino)ethyl)-1H-indol-5-yl)naphthalene-1-sulfonamide] | 2.1 nM | 68.4% | 88.4%
20 | CN(C)CCc1c[nH]c2ccc(NS(=O)(=O)c3ccc(F)c4ccccc34)cc12 [Example 7, N-(3-(2-(dimethylamino)ethyl)-1H-indol-5-yl)-4-fluoronaphthalene-1-sulfonamide] | 5.2 nM | 81.5% | 95.4%
